Data as given in ChEMBL document CHEMBL6109160, “Novel Cyclic Peptides as Interleukin-23 Inhibitor for Treating Inflammatory Disorders” (ACS Med Chem Lett, 2025).

Target: T1, Interleukin-23 receptor (Homo sapiens, UniProt Q5VWK5)
T1 sequence (Q5VWK5 whole entry): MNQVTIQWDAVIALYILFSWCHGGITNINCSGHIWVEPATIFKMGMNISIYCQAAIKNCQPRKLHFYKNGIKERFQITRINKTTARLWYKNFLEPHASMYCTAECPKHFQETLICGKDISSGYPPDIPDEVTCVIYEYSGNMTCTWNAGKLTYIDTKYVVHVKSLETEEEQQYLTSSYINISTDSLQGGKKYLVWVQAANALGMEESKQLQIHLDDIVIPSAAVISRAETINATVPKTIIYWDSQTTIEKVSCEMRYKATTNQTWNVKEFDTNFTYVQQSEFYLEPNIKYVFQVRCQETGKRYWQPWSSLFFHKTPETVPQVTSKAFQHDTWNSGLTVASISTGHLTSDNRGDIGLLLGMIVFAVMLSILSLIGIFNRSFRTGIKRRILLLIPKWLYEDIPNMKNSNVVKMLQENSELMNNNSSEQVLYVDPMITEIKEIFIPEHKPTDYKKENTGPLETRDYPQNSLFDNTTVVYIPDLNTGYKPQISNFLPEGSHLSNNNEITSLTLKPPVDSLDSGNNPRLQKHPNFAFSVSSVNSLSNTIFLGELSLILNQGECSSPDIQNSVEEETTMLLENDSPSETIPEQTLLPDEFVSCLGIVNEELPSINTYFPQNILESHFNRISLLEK
Assay: Binding affinity to Interleukin-23 receptor in HEK293 cells transfected with firefly luciferase reporter incubated for 5 hrs by luminescence based analysis
Assay type: cell-based

IC50: 12 nM
Structure (SMILES): CC(=O)NCCCC[C@@H]1NC(=O)[C@H](Cc2c[nH]c3c(C)cccc23)NC(=O)[C@H]([C@@H](C)O)NC(=O)[C@H](CC(N)=O)NC(=O)[C@@H](NC(=O)CCOCCOCC[N+](C)(C)C)C(C)(C)SSC(C)(C)[C@@H](C(=O)N[C@@H](Cc2ccc(OCCN)cc2)C(=O)N[C@@H](Cc2ccc3ccccc3c2)C(=O)NC2(C(=O)N[C@@H](CCC(=O)O)C(=O)N[C@@H](CC(N)=O)C(=O)N[C@@H](Cc3cccnc3)C(=O)N(C)CC(N)=O)CCOCC2)NC1=O
